In patent publication US20170334899A1, “AMINO-SUBSTITUTED ISOTHIAZOLES” (Bayer Pharma Aktiengesellschaft, priority 2014, published 2017):

Columns and labels:
[1] = system: human cervical tumor cell line HeLa (ATCC CCL-2); experiment: SAC-Formation - Paclitaxel-Induced Assay; assay type: cell-based; conditions: 24 h, HeLa cells, paclitaxel 0.05 μM, test range 0.005 μM-20 μM, read-out: IC50 [mol/l] SAC-Formation - Paclitaxel-Induced Assay
Method in brief: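 Read-out is high-content imaging of anti-phospho-H3 Ser10 (mitosis) and Hoechst 33342 (DNA, cell number), with decreased mitotic fraction marking checkpoint breakthrough. Compounds (0.005–20 μM) and 0.05 μM paclitaxel co-added to overnight-plated HeLa for 24 h at 37° C; four-parameter Hill fit.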

[2] = system: human cervical tumor cell line HeLa (ATCC CCL-2); experiment: SAC-Formation - Nocodazole-Induced Assay; assay type: cell-based; conditions: 24 h, HeLa cells, nocodazole 0.1 μg/ml together with test compound, decrease of mitotic cells (phospho-histone H3 Ser10)
Method in brief: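 Loss of phospho-histone H3 Ser10-positive cells, counted against Hoechst-stained nuclei by high-content imaging, marked mitotic breakthrough. Compounds (0.005–20 μM, 0.5% DMSO) were co-dosed with 0.1 μg/ml nocodazole onto HeLa cells for 24 h at 37 °C. Curves were fitted with a four-parameter Hill equation.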

| SMILES | IC50 ([1]; Homo sapiens, HeLa) [nM] | IC50 ([2]; Homo sapiens, HeLa) [nM] | IC50 [1] [nM] | IC50 [2] [nM] |
| --- | --- | --- | --- | --- |
| Cc1nsc(Nc2cnc3ccccc3n2)c1C(=O)Nc1ccc(C(=O)N2CCCN(CC(F)(F)F)CC2)cc1 [Example 159] | 10000 | 1500 |  |  |
| Cc1nsc(Nc2cnc3ccccc3n2)c1C(=O)Nc1ccc(NC2CC2)nc1 [Example 172, N-[6-(cyclopropylamino)pyridin-3-yl]-3-methyl-5-(quinoxalin-2-ylamino)-1,2-thiazole-4-carboxamide] | 2300 | 3500 |  |  |
| Cc1nsc(Nc2cnc(C(F)(F)F)cn2)c1C(=O)Nc1ccc(C(=O)OC(C)(C)C)cc1 [Example 96, tert-Butyl 4-{[(3-methyl-5-{[5-(trifluoromethyl)pyrazin-2-yl]amino}-1,2-thiazol-4-yl)carbonyl]amino}benzoate] | 39 | 1.8 |  |  |
| Cc1nsc(Nc2cnc(C(F)(F)F)cn2)c1C(=O)Nc1ccc(OC2CCN(CC(F)F)CC2)c(F)c1 [Example 164, N-(4-{[1-(2,2-difluoroethyl)piperidin-4-yl]oxy}-3-fluorophenyl)-3-methyl-5-{[5-(trifluoromethyl)pyrazin-2-yl]amino}-1,2-thiazole-4-carboxamide] | 140 | 84 |  |  |
| CC(=O)N(C)CCOc1ccc(NC(=O)c2c(C)nsc2Nc2nc3c(C(F)(F)F)cccc3s2)cn1 [Example 112, N-(6-{2-[Acetyl(methyl)amino]-ethoxy}pyridin-3-yl)-3-methyl-5-{[4-(trifluoromethyl)-1,3-benzothiazol-2-yl]amino}-1,2-thiazole-4-carboxamide] | 800 | 230 |  |  |
| Cc1noc(-c2cccc(NC(=O)c3c(C)nsc3Nc3cnc4ccccc4n3)c2)n1 [Example 106, 3-Methyl-N-[3-(3-methyl-1,2,4-oxadiazol-5-yl)phenyl]-5-(quinoxalin-2-ylamino)-1,2-thiazole-4-carboxamide] | 130 | 140 |  |  |
| Cc1nsc(Nc2cnc3ccccc3n2)c1C(=O)Nc1cccc(C(=O)N[C@@H](CCC(N)=O)C(=O)O)c1 [Example 103, N^2-[3-({[3-Methyl-5-(quinoxalin-2-ylamino)-1,2-thiazol-4-yl]carbonyl}amino)-benzoyl]glutamine] | 20000 | 13000 |  |  |
| Cc1nsc(Nc2cnc(C(F)(F)F)cn2)c1C(=O)Nc1ccc(O[C@H]2CCN(CCC(F)(F)F)C[C@H]2F)nc1 [Example 146, N-(6-{[(3R,4S)-3-fluoro-1-(3,3,3-trifluoropropyl)piperidin-4-yl]oxy}pyridin-3-yl)-3-methyl-5-{[5-(trifluoromethyl)pyrazin-2-yl]amino}-1,2-thiazole-4-carboxamide] | 110 | 63 |  |  |
| Cc1nsc(Nc2cc(C#N)ccn2)c1C(=O)Nc1cccc(C(=O)N2CCCC2)c1 [Example 114, 5-[(4-Cyanopyridin-2-yl)amino]-3-methyl-N-[3-(pyrrolidin-1-ylcarbonyl)phenyl]-1,2-thiazole-4-carboxamide] | 1300 | 210 |  |  |

The remaining lines, values ahead:

| IC50 ([1]; Homo sapiens, HeLa) [nM] | IC50 ([2]; Homo sapiens, HeLa) [nM] | IC50 [1] [nM] | IC50 [2] [nM] | SMILES |
| --- | --- | --- | --- | --- |
| 4000 | 2100 |  |  | Cc1nsc(Nc2cnc3ccccc3n2)c1C(=O)Nc1ccc(C(=O)NCCN2CCCC(F)(F)C2)cc1 [Example 156, N-(4-{[2-(3,3-difluoropiperidin-1-yl)ethyl]carbamoyl}phenyl)-3-methyl-5-(quinoxalin-2-ylamino)-1,2-thiazole-4-carboxamide] |
| 120 | 36 |  |  | CCCCN1CC[C@@H](Oc2ccc(NC(=O)c3c(C)nsc3Nc3cnc(C(F)(F)F)cn3)cn2)[C@@H](F)C1 [Example 141, N-(6-{[(3S,4R)-1-butyl-3-fluoropiperidin-4-yl]oxy}pyridin-3-yl)-3-methyl-5-{[5-(trifluoromethyl)pyrazin-2-yl]amino}-1,2-thiazole-4-carboxamide] |
| 24 | 12 |  |  | Cc1nsc(Nc2cnc(C(F)(F)F)cn2)c1C(=O)Nc1ccc(OCC2CCN(CC(F)(F)F)C2)nc1 (stereo not drawn) [Example 123, 3-Methyl-N-(6-{[1-(2,2,2-trifluoroethyl)pyrrolidin-3-yl]methoxy}pyridin-3-yl)-5-{[5-(trifluoromethyl)pyrazin-2-yl]amino}-1,2-thiazole-4-carboxamide] |
| 370 | 65 |  |  | Cc1nsc(Nc2cnc(C(F)(F)F)cn2)c1C(=O)Nc1ccc(C(=O)NCCN2CCCC(F)(F)C2)cc1 [Example 153, N-(4-{[2-(3,3-difluoropiperidin-1-yl)ethyl]carbamoyl}phenyl)-3-methyl-5-{[5-(trifluoromethyl)pyrazin-2-yl]amino}-1,2-thiazole-4-carboxamide] |
| 1100 | 2300 |  |  | Cc1nsc(Nc2ccc(C#N)cn2)c1C(=O)Nc1ccc(N[C@@H](C)C(=O)OC(C)(C)C)nc1 [Example 170, tert-butyl N-{5-[({5-[(5-cyanopyridin-2-yl)amino]-3-methyl-1,2-thiazol-4-yl}carbonyl)amino]pyridin-2-yl}alaninate] |
|  |  | 88 | 40 | Cc1nsc(Nc2cnc(C(F)(F)F)cn2)c1C(=O)Nc1ccc(OC[C@@H]2CCCN(CCC(F)(F)F)C2)nc1 [Example 422, 3-Methyl-5-{[5-(trifluoromethyl)pyrazin-2-yl]amino}-N-(6-{[(3R)-1-(3,3,3-trifluoropropyl)piperidin-3-yl]methoxy}pyridin-3-yl)-1,2-thiazole-4-carboxamide] |
|  | 27 |  |  | Cc1nsc(Nc2cnc(C(F)(F)F)cn2)c1C(=O)Nc1ccc(OC[C@H]2CCN(CC(F)F)C2)nc1 [Example 132, N-(6-{[(3S)-1-(2,2-difluoroethyl)pyrrolidin-3-yl]methoxy}pyridin-3-yl)-3-methyl-5-{[5-(trifluoromethyl)pyrazin-2-yl]amino}-1,2-thiazole-4-carboxamide] |
| 6700 | 1900 |  |  | COc1ccc(NC(=O)c2c(C)nsc2Nc2ccc(C#N)cn2)c(N2CCOCC2)n1 [Example 173, 5-[(5-cyanopyridin-2-yl)amino]-N-[6-methoxy-2-(morpholin-4-yl)pyridin-3-yl]-3-methyl-1,2-thiazole-4-carboxamide] |
| 170 | 52 |  |  | Cc1nsc(Nc2cncc(C(F)(F)F)n2)c1C(=O)Nc1ccc(OCC2CCCN(C(=O)OC(C)(C)C)C2)nc1 (stereo not drawn) [Example 166, tert-butyl 3-{[(5-{[(3-methyl-5-{[6-(trifluoromethyl)pyrazin-2-yl]amino}-1,2-thiazol-4-yl)carbonyl]amino}pyridin-2-yl)oxy]methyl}piperidine-1-carboxylate] |
| 1500 | 1500 |  |  | Cc1nsc(Nc2cnc(C(F)(F)F)cn2)c1C(=O)Nc1ccc(OC2CCN(CC(F)F)CC2)nc1 [Example 8, N-(6-{[1-(2,2-Difluoroethyl)piperidin-4-yl]oxy}pyridin-3-yl)-3-methyl-5-{[5-(trifluoromethyl)pyrazin-2-yl]amino}-1,2-thiazole-4-carboxamide] |
|  | 27 |  |  | Cc1nsc(Nc2cnc(C(F)(F)F)cn2)c1C(=O)Nc1ccc(OC[C@H]2CCN(CC(F)(F)F)C2)nc1 (racemic) [Example 133, 3-Methyl-N-(6-{[(SR)-1-(2,2,2-trifluoroethyl)pyrrolidin-3-yl]methoxy}pyridin-3-yl)-5-{[5-(trifluoromethyl)pyrazin-2-yl]amino}-1,2-thiazole-4-carboxamide] |
|  | 36 |  |  | Cc1nsc(Nc2cnc(C(F)(F)F)cn2)c1C(=O)Nc1ccc(OC[C@H]2CCN(CCC(F)(F)F)C2)nc1 [Example 134, 3-Methyl-5-{[5-(trifluoromethyl)pyrazin-2-yl]amino}-N-(6-{[(3S)-1-(3,3,3-trifluoropropyl)pyrrolidin-3-yl]methoxy}pyridin-3-yl)-1,2-thiazole-4-carboxamide] |
